US20190022039A1, “COMPOUND HAVING ENHANCING ACTIVITY FOR GLUCAGON-LIKE PEPTIDE-1 RECEPTOR ACTIONS” (AJINOMOTO CO., INC., priority 2016, published 2019)

Target: T1, human GLP-1R (Homo sapiens, UniProt P43220)
T1 construct: expressed in transfected cells; host or cells: PEAK RAPID-derived Gα15-trans48 LD stably expressing cells (PRG48), transiently transfected with Lipofectamine 2000
Assay: GLP-1 receptor in vitro calcium assay (intracellular free calcium concentration change induced via GLP-1 receptor)
Type: cell-based
Conditions: for EC50: PRG48 cells transfected with human GLP-1R, compound added with 250 pM GLP-1, Ca2+ response ΔF/F, read-out: Ca EC50 value; for GLP-1 receptor action enhancing activity (vs BETP): intensity compared to BETP, activity of BETP as 1
Description: The supernatant was removed by centrifugation (1,200 rpm, 3 min), and the cells were suspended at 4×10^6 cells/mL in 5% FBS DMEM/Ham's F-12. 1.0 mL thereof was seeded in a 15 cm dish and cultured (37° C., 5% CO2) overnight. The next day, the medium of the cultured PRG48 cells was replaced with 5% FBS DMEM/Ham's F-12 medium (30 mL), human GLP-1R gene mixture solution (GLP-1R/pc.DNA3.1(+) 60 μg) prepared using 6.0 mL of Opti-MEM (invitrogen) and 120 μL of Lipofectamin 2000 (invitrogen) was slowly added to the cells, and cultured (37° C., 5% CO2) for 6 hr to introduce the gene. […] The cells were counted, suspended at 0.5×10^6 cells/mL in 5% FBS DMEM/Ham's F-12 medium, and seeded in each well of D-Lysine coat 96 well plate (BD Bioscience) at 7.0×10^4 cells. After static adhesion at room temperature for 1 hr, the cells were cultured overnight (37° C., 5% CO2). The medium in the Cultured 96 well was entirely discarded, 150 μL of intracellular calcium measurement staining solution Calcium assay kit Express (Molecular Device) diluted 80-fold with Assay buffer (20 mM HEPES, 146 mM NaCl, 1 mM MgSO4, 1.39 mM glucose, 1 mM CaCl2, 2.5 mM Probenecid, 0.05% Casein Enzymatic Hydrolysate) was added, and the mixture was stood at 37° C. for 30 min, and then at room temperature for 45 min to perform staining. After staining, 250 pM GLP-1 and the compound were added and Ca^2+ response was observed by using FDSSμCELL (Hamamatsu Photonics K.K.). Each evaluation compound was dissolved in DMSO, further diluted with Assay buffer and used.
For evaluation, the fluorescence values (Ex480:Em540) before and after addition were measured, and changes in the intracellular free calcium concentration produced via GLP-1R receptor by the addition were quantitatively examined. For the measurement and analysis of the fluorescence values, a soft (FDSS7000EX) attached to the FDSSμCELL was used, and ΔF/F value ((maximum fluorescence value after stimulation−minimum fluorescence value after stimulation)/fluorescence value before stimulation) was calculated. Using the obtained ΔF/F values, EC50 value was calculated by Prism5.

T1 sequence (P43220 24-463): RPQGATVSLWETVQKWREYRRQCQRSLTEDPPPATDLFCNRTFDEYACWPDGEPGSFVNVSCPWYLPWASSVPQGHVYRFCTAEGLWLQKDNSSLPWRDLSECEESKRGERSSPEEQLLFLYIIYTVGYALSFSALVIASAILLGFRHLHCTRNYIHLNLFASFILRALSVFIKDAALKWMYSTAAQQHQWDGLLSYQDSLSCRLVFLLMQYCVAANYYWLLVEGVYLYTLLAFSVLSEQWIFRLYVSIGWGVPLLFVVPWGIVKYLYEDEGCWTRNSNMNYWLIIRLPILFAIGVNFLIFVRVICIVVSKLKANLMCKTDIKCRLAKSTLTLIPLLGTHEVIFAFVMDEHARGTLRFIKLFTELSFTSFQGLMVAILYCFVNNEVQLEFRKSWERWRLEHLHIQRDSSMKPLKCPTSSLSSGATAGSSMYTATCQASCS

SMILES	EC50	GLP-1 receptor action enhancing activity (vs BETP)
Cc1ccc(S(=O)(=O)Nc2ccc(NC(=O)N[C@H](Cc3ccccc3)C(=O)NCCC3CCCCC3)cc2)cc1 [Compound 22]	220 nM	116
CCCCCCCCNC(=O)[C@H](Cc1ccc(Cl)cc1)NC(=O)Nc1ccc(NS(=O)(=O)c2ccc(C(C)(C)C)cc2)cc1 [Compound 59]	5.7 nM	
CCCCC(CC)CNC(=O)[C@@H](Cc1ccccc1)NC(=O)Nc1ccc(NS(=O)(=O)c2ccc(C(C)(C)C)cc2)cc1 (stereo partly shown) [Compound 36]	18 nM	1425
CC(C)(C)c1ccc(S(=O)(=O)Nc2ccc(NC(=O)N[C@H](CC3CCCCC3)c3nc(C(C)(C)C)no3)cc2)cc1 [Compound 82]	16 nM	1606
CCCCC(CC)CNC(=O)[C@@H](CC1CCCCC1)NC(=O)N(CC(=O)O)c1ccc(NS(=O)(=O)c2ccc(C(C)(C)C)cc2)cc1 (stereo partly shown) [Compound 101]	20 nM	1272
CCCc1ccc(S(=O)(=O)Nc2ccc(NC(=O)N[C@@H](Cc3ccccc3)C(=O)OC(C)(C)C)cc2)cc1 [Compound 71]	400 nM	64
Cc1ccc(S(=O)(=O)Nc2ccc(NC(=O)N[C@H](Cc3c[nH]c4ccccc34)C(=O)NCCC3CCCCC3)cc2)cc1 [Compound 47]	120 nM	208
CCCCC(CC)CNC(=O)[C@@H](Cc1ccc(Cl)cc1)NC(=O)Nc1ccc(NS(=O)(=O)c2ccc(C)cc2)cc1 (stereo partly shown) [Compound 39]	23 nM	
CCCCCNC(=O)[C@@H](Cc1ccccc1)NC(=O)Nc1ccc(NS(=O)(=O)c2ccc(C)cc2)cc1 [Compound 35]	660 nM	38
CC(C)(C)c1ccc(S(=O)(=O)Nc2ccc(NC(=O)N[C@@H](CC3CCCCC3)c3nc(-c4ccc(OC(F)(F)F)cc4)no3)cc2)cc1 [Compound 84]	3.4 nM	7358
Cc1ccc(S(=O)(=O)Nc2ccc(NC(=O)N[C@H](Cc3ccccc3)C(=O)NCC3CCCC3)cc2)cc1 [Compound 27]	1100 nM	23
Cc1ccc(S(=O)(=O)Nc2ccc(NC(=O)N[C@H](Cc3ccccc3)C(=O)NCc3ccc(C)o3)cc2)cc1 [Compound 32]	820 nM	31
Cc1ccccc1S(=O)(=O)Nc1ccc(NC(=O)N[C@@H](Cc2ccccc2)C(=O)OC(C)(C)C)cc1 [Compound 78]	1700 nM	15
CCCOc1ccc(-c2noc([C@H](Cc3ccccc3)NC(=O)Nc3ccc(NS(=O)(=O)c4ccc(C)cc4)cc3)n2)cc1 [Compound 69]	24 nM	1068
CCCCCCNC(=O)[C@@H](CCSC)NC(=O)Nc1ccc(NS(=O)(=O)c2ccc(C)cc2)cc1 [Compound 20]	1500 nM	17
CC(C)CCCC(C)NC(=O)[C@@H](Cc1c[nH]c2ccccc12)NC(=O)Nc1cccc(NS(=O)(=O)c2ccc(C(C)(C)C)cc2)c1 (stereo partly shown) [Compound 94]	180 nM	140
CC(C)(C)SCCCCCNC(=O)[C@@H](CC1CCCCC1)NC(=O)Nc1ccc(NS(=O)(=O)c2ccc(C(C)(C)C)cc2)cc1 [Compound 99]	150 nM	169
CC(C)CCCC(C)NC(=O)[C@@H](CC1CCCCC1)NC(=O)Nc1ccc(NS(=O)(=O)c2ccc(N3CCOCC3)nc2)cc1 (stereo partly drawn) [Compound 104, (2R)-3-cyclohexyl-N-(1,5-dimethylhexyl)-2-({4-[(6-morpholino-3-pyridyl)sulfonylamino]phenyl}carbamoylamino)propanamide]	480 nM	53
COc1ccc(CNC(=O)[C@@H](Cc2ccccc2)NC(=O)Nc2ccc(NS(=O)(=O)c3ccc(C)cc3)cc2)cc1 [Compound 25]	1400 nM	18
Cc1ccc(S(=O)(=O)Nc2ccc(NC(=O)N[C@H](Cc3ccccc3)C(=O)NC3CCCCCC3)cc2)cc1 [Compound 23]	370 nM	68
Cc1ccc(S(=O)(=O)Nc2ccc(NC(=O)N[C@H](Cc3ccccc3)C(=O)N[C@@H](C)c3ccccc3)cc2)cc1 [Compound 31]	480 nM	52
Cc1ccc(S(=O)(=O)Nc2ccc(N(C)C(=O)N[C@H](Cc3ccccc3)C(=O)OC(C)(C)C)cc2)cc1 [Compound 86]	430 nM	58
Cc1ccc(S(=O)(=O)Nc2cccc(NC(=O)N[C@@H](Cc3ccccc3)C(=O)OC(C)(C)C)c2)cc1 [Compound 79]	1500 nM	17
CC(C)c1ccc(S(=O)(=O)Nc2ccc(NC(=O)N[C@@H](Cc3ccccc3)C(=O)OC(C)(C)C)cc2)cc1 [Compound 72]	680 nM	37

Further compounds by falling EC50, results first:

EC50	GLP-1 receptor action enhancing activity (vs BETP)	SMILES
25000 nM	1	CC[S+]([O-])c1nc(-c2cccc(OCc3ccccc3)c2)cc(C(F)(F)F)n1 (stereo not shown) [BETP, 4-(3-benzyloxyphenyl)-2-ethylsulfinyl-6-(trifluoromethyl)pyrimidine, reference compound]
1900 nM	13	Cc1ccc(S(=O)(=O)Nc2ccc(NC(=O)N[C@H](Cc3ccccc3)C(=O)NCC(C)(C)C)cc2)cc1 [Compound 4]
1100 nM	23	Cc1ccc(S(=O)(=O)Nc2ccc(NC(=O)N[C@H](Cc3ccccc3)C(=O)OC(C)(C)C)cc2F)cc1 [Compound 87, tert-butyl (2R)-2-{[3-fluoro-4-(p-tolylsulfonylamino)phenyl]carbamoylamino}-3-phenyl-propanoate]
620 nM	41	CCc1ccc(S(=O)(=O)Nc2ccc(NC(=O)N[C@@H](Cc3ccccc3)C(=O)OC(C)(C)C)cc2)cc1 [Compound 75]
520 nM	48	CCCCCCNC(=O)[C@@H](Cc1ccc(F)cc1)NC(=O)Nc1ccc(NS(=O)(=O)c2ccc(C)cc2)cc1 [Compound 17]
490 nM	52	CCCCCCNC(=O)[C@@H](CC(C)C)NC(=O)Nc1ccc(NS(=O)(=O)c2ccc(C)cc2)cc1 [Compound 11]
470 nM	53	CCCCCCNC(=O)[C@@H](Cc1c[nH]c2ccccc12)NC(=O)Nc1ccc(NS(=O)(=O)c2ccc(C)cc2)cc1 [Compound 21]
250 nM	101	CCCCCCNC(=O)[C@@H](Cc1c[nH]c2ccccc12)NC(=O)Nc1cccc(NS(=O)(=O)c2ccc(C(C)(C)C)cc2)c1 [Compound 95]
50 nM	503	CCCCC(CC)CNC(=O)[C@@H](CC1CCCCC1)NC(=O)Nc1ccc(N2CCOCC2)c(NS(=O)(=O)c2ccc(C(C)(C)C)cc2)c1 (stereo partly drawn) [Compound 100, (2R)-2-({3-[(4-tert-butylphenyl)sulfonylamino]-4-morpholino-phenyl}carbamoylamino)-3-cyclohexyl-N-(2-ethylhexyl)propanamide]
50 nM	505	Cc1ccc(S(=O)(=O)Nc2ccc(NC(=O)N[C@H](Cc3ccccc3)C(=O)NCC#N)cc2)cc1 [Compound 7]
45 nM	558	Cc1ccc(S(=O)(=O)Nc2ccc(NC(=O)N[C@H](Cc3ccccc3)C(=O)NC(C)CCCC(C)C)cc2)cc1 (stereo partly shown) [Compound 55]
28 nM	898	CCCCCCNc1ccc(S(=O)(=O)Nc2cccc(NC(=O)N[C@H](CC3CCCCC3)C(=O)NCCCSC)c2)cn1 [Compound 113]
7 nM	3578	CCCCCCCN(C(=O)N[C@H](Cc1ccccc1)C(=O)OC(C)(C)C)c1ccc(NS(=O)(=O)c2ccc(C)cc2)cc1 [Compound 85, tert-butyl (2R)-2-({heptyl-[4-(p-tolylsulfonylamino)phenyl]carbamoyl}amino)-3-phenyl-propanoate]
4.3 nM		CCCCC(CC)CNC(=O)[C@@H](Cc1ccc(Cl)cc1)NC(=O)Nc1ccc(NS(=O)(=O)c2ccc(C(C)(C)C)cc2)cc1 (stereo partly drawn) [Compound 1, (2R)-2-({4-[(4-tert-butylphenyl)sulfonylamino]phenyl}carbamoylamino)-3-(4-chlorophenyl)-N-(2-ethylhexyl)propanamide]
